Test results taken from patent US10112911B2, “Substituted cyanoguanidines as oral anti-virals” (Abbvie Inc, priority 2012, dated 2018).
Structures can show the parent of a compound that is named as a salt. Where two headings read alike, the source gives them in different places.

Experiments:
[1] = test system: RSV (Group A, Long Strain); test: Cytopathetic effect (CPE) protection antiviral assay, MTT readout; type: cell-based; conditions: human respiratory syncytial virus, HEp-2, 96 h, read-out: RSV EC50
Protocol: HEp-2 cells and RSV (Group A, Long Strain) were obtained from the American Type Culture Collection (Manassas, Va.).
A cytopathetic effect (CPE) protection assay was performed to determine the ability of a compound to protect the cells from viral infection and thus the CPE induced by viral infection. 96-Well plates were first seeded with […] per well in Dulbecco's modified Eagle's medium (DMEM) containing 10% fetal bovine serum (FBS). One day after the cells were seeded, they were preincubated with serial dilutions of compounds prepared in 100 μL assay medium (DMEM mixed with F12 medium at a 1:1 ratio, supplemented with 2% FBS and 1 mM sodium pyruvate) for 1 hour at 37° C. 100 μL of assay medium containing 0.2 multiplicity of infection (MOI) of RSV was then added to each well of cells. In addition to wells containing infected cells incubated with compounds, each plate also contained replicates of two kinds of controls: (1) Virus control contained cells infected with 0.2 MOI of RSV in assay medium, (2) Uninfected cell control contained cells incubated with assay medium only. After 4 days of incubation at 37° C., the viability of cells was assessed using MTT (Thiazolyl blue tetrazolium bromide, Sigma). A stock solution of MTT, at a concentration of 4 mg/mL in phosphate-buffered saline, was added to all wells at 25 μL per well. Plates were further incubated for 4 hours, and each well was then treated with 50 μL of a solution containing 20% sodium dodecyl sulfate (SDS) and 0.02 N HCl. After an overnight incubation, the plates were measured on a BioTek® microtiter plate reader at wavelengths of 570 nm and 650 nm. The MTT detection is based on the fact that viable (uninfected) cells can reduce the tetrazolium salts into colored formazan products, which can then be quantitated by spectrometry. Based on the spectrometric absorbance of each sample, the percent of protection from CPE, which is an indicator of protection from viral infection, can be calculated for each compound and the 50% effective concentrations (EC50) can be calculated using a nonlinear regression curve fitting equation provided by the GraphPad Prism® 4 software.
Compounds were tested to determine both their antiviral and toxicity to determine their therapeutic window. Determination of the EC50 and TD50 of these active compounds were repeated one additional time to confirm the window.

HEp-2 cells = test: Cytotoxicity assay (MTT) run in parallel with the antiviral assay; type: cell-based; conditions: uninfected HEp-2 cells, 4 days incubation, 50% toxicity dose
Protocol: HEp-2 cells and RSV (Group A, Long Strain) were obtained from the American Type Culture Collection (Manassas, Va.). Cytotoxicity of the compounds was determined in experiments done in parallel with the antiviral assays. To do this, 100 μL of assay medium was added to the wells of HEp-2 cells pretreated with 100 μL serially diluted compounds as described above. After 4 days of incubation, the viability of the cells was determined by the MT assay in the same way as detailed in the “Antiviral Assay” method. Results were expressed as 50% toxicity dose (TD50) values. Compounds were tested to determine both their antiviral and toxicity to determine their therapeutic window. Determination of the EC50 and TD50 of these active compounds were repeated one additional time to confirm the window.

[2] = HEp-2 cells, 0.2 MOI RSV, 4 days incubation, protection from CPE (Table 1)
[3] = HEp-2 cells, 0.2 MOI RSV, 4 days, Table 2, determination repeated to confirm window

| Compound | EC50 [1] | MTT TD50 (HEp-2 cells) | EC50 [1, 2] | EC50 [1, 3] |
| --- | --- | --- | --- | --- |
| Cc1ccccc1N/C(=N/C#N)N1CCN(c2cnc3ccccc3n2)CC1C(C)C (stereo not shown) [Example 1.3, N′-cyano-2-isopropyl-N-(2-methylphenyl)-4-(quinoxalin-2-yl)piperazine-1-carboximidamide trifluoroacetate] | 0.25 µM | >32 µM |  |  |
| Cc1ccccc1N/C(=N/C#N)N1CCN(c2ncnc3ccccc23)CC1C(C)C (stereo not shown) [Example 1.8, N′-cyano-2-isopropyl-N-(2-methylphenyl)-4-(quinazolin-4-yl)piperazine-1-carboximidamide] |  | >100 µM | 0.45 µM | 0.3 µM |
| Cc1ccc2oc(N3CCN(/C(=N\C#N)Nc4ccccc4C)C(C(C)C)C3)nc2c1 (stereo not shown) [Example 1.7, N′-cyano-2-isopropyl-4-(5-methyl-1,3-benzoxazol-2-yl)-N-(2-methylphenyl)piperazine-1-carboximidamide] |  | >10 µM | 0.83 µM | 0.83 µM |
| Cc1ccccc1N/C(=N/C#N)N1CCN(c2ncnc3[nH]ccc23)CC1C(C)C (stereo not shown) [Example 1.11, N′-cyano-2-isopropyl-N-(2-methylphenyl)-4-(7H-pyrrolo[2,3-d]pyrimidin-4-yl)piperazine-1-carboximidamide] |  | >100 µM | 1.41 µM | 1.91 µM |
| Cc1ccccc1N/C(=N/C#N)N1CCN(c2nc3ccccc3s2)CC1C(C)C (stereo not shown) [Example 1.6, 4-(1,3-benzothiazol-2-yl)-N′-cyano-2-isopropyl-N-(2-methylphenyl)piperazine-1-carboximidamide] |  | >10 µM | 1.59 µM | 1.87 µM |
| Cc1ccccc1N/C(=N/C#N)N1CCN(c2nccnc2C#N)CC1C(C)C (stereo not shown) [Example 1.1, N′-cyano-4-(3-cyanopyrazin-2-yl)-2-isopropyl-N-(2-methylphenyl)piperazine-1-carboximidamide] |  | >100 µM | 0.89 µM | 0.89 µM |
| Cc1ccccc1N/C(=N/C#N)N1CCN(c2cnc3cc(F)ccc3n2)CC1C(C)C (stereo not shown) [Example 1.54, N′-cyano-4-(6-fluoroquinoxalin-2-yl)-2-isopropyl-N-(2-methylphenyl)piperazine-1-carboximidamide] |  | >29.31 µM | 0.26 µM | 0.26 µM |
| COC(=O)c1cnc(N2CCN(/C(=N\C#N)Nc3ccccc3Cl)C(C(C)C)C2)cn1 (stereo not shown) [Example 1.2, methyl 5-{4-[N-(2-chlorophenyl)-N′-cyanocarbamimidoyl]-3-isopropylpiperazin-1-yl}pyrazine-2-carboxylate] |  | >100 µM | 1.13 µM | 1.13 µM |
| Cc1ccccc1N/C(=N/C#N)N1CCN(c2cnc3ccccc3n2)C[C@@H]1C(C)C [Example 1.13, (2S)—N′-cyano-2-isopropyl-N-(2-methylphenyl)-4-(quinoxalin-2-yl)piperazine-1-carboximidamide trifluoroacetate] | 0.2 µM | >38.6 µM |  |  |
| Cc1ccccc1N/C(=N/C#N)N1CCN(c2nc3cccc(Cl)c3o2)CC1C(C)C (stereo not shown) [Example 1.5, 4-(7-chloro-1,3-benzoxazol-2-yl)-N′-cyano-2-isopropyl-N-(2-methylphenyl)piperazine-1-carboximidamide] |  | >10 µM | 0.81 µM | 0.81 µM |
| CCC1CN(c2cnc3ccccc3n2)CCN1/C(=N\C#N)Nc1ccccc1C (stereo not shown) [Example 1.44, N′-cyano-2-ethyl-N-(2-methylphenyl)-4-(quinoxalin-2-yl)piperazine-1-carboximidamide] |  | 42.06 µM | 0.12 µM | 0.12 µM |
| Cc1ccccc1N/C(=N/C#N)N1CCN(c2nc3ccccc3[nH]2)CC1C(C)C (stereo not shown) [Example 1.9, 4-(1H-benzimidazol-2-yl)-N′-cyano-2-isopropyl-N-(2-methylphenyl)piperazine-1-carboximidamide] |  | >100 µM | 4.09 µM | 4.09 µM |
| CC(C)C1CN(c2cnc3ccccc3n2)CCN1/C(=N\C#N)Nc1ccccc1Cl (stereo not shown) [Example 1.19, N-(2-chlorophenyl)-N′-cyano-2-isopropyl-4-(quinoxalin-2-yl)piperazine-1-carboximidamide] |  | >27.49 µM | 0.15 µM | 0.15 µM |
| Cc1ccccc1N/C(=N/C#N)N1CCN(c2nc3ccccc3c(=O)[nH]2)CC1C(C)C (stereo not shown) [Example 1.10, N′-cyano-2-isopropyl-N-(2-methylphenyl)-4-(4-oxo-3,4-dihydroquinazolin-2-yl)piperazine-1-carboximidamide] |  | >100 µM | 0.43 µM | 0.43 µM |
